Several values for one entry are separate records, joined by “and”; a condition that tells them apart may be missing. Equal entries are not always repeated. Where two headings read alike, the source gives them in different places.
Legend:
NDM-1 [1] = target: T1, NDM-1 (Klebsiella pneumoniae, UniProt C7C422); conditions: 450 nm, 20 J cm^-2
NDM-1 [2] = target: T1, NDM-1; conditions: in words
Protocol: (§12) 1.4.1 Differential Scanning Fluorimetry (DSF)
(§13) DSF was performed using the Applied Biosystems QuantStudio 5 thermal cycler (Thermo
(§14) Fisher Scientific). Results were analysed and Tm determined with the Applied Biosystems
(§15) Protein Thermal Shift Software v1.4 and Tm values determined by the software. DSF was
(§16) conducted in sealed MicroAmp Optical 384-Well Reaction Plates (Thermo Fisher Scientific).
(§17) at a temperature ramp rate of 0.03 °C/s. For compound-protein interaction studies, a final
(§18) containing 5X SYPRO Orange (Thermo Fisher Scientific), 50 mM HEPES and 5%(v/v)
(§19) DMSO-d6. The final reaction volume was 20 µL per well. All DMSO compound stocks used
(§20) for DSF experiments were freshly prepared from solid stocks. All DSF measurements were
(§21) carried out in triplicate and the Tm reported is the mean value and the error is the standard
(§22) deviation. For all compounds tested, a no protein control run was included to see potential
(§23) changes in fluorescence resulting from a compound-dye interaction.

NDM-1 in E. coli NDM-1 [3] = target: T2, NDM-1 in E. coli NDM-1 (Klebsiella pneumoniae, UniProt C7C422); conditions: E. coli NDM-1, 450 nm, 60 J cm^-2
Protocol: (§24) shaking at 180 rpm for 18 hours. The overnight suspensions were subcultured (1:100) in fresh LB and incubated to yield an OD600 of 0.55-0.60. The were harvested and pelleted at 3500  g for 15 minutes at 4 °C. The pellets were washed with PBS and pelleted again under the same
(§25) conditions. The bacteria were then stored as pellets at 4 C until required for the assay and to
(§26) be used within 5 hours. To prepare the bacteria fo r the assay, a pellet was resuspended in an
(§27) adjusted volume of fresh PBS to achieve an OD600 ≈ 5.0 and then kept at 4 C for 1 hr before
(§28) being used. The bacteria were then diluted to OD600 ≈ 2.0 in fresh PBS and used immediately.
(§29) inhibitor control, and one row of Bacteria Buffer B (50 µL) which served as a no-bacteria
(§30) control (providing five rows in total). Bacteria stock (OD600 ≈ 2.0, 40 µL, final concentration
(§31) of bacteria in well = OD600 ≈ 0.8) was added to each well of the first four rows, the plate was
(§32) sealed, and the samples then pre-incubated for 60 min under either ‘dark’ or ‘light’ conditions
(§33) Under ‘dark’ conditions, the plate was left sealed in a
(§34) substrate in well = 100 µM) was conducted manually and then the plate immediately resealed
(§35) substrate had been completely consumed. Method conditions are as follows: cycle time = 100

NDM-1 in E. coli NDM-1 [4] = target: T2, NDM-1 in E. coli NDM-1; test: cell-based; conditions: E. coli NDM-1, nitrocefin
Protocol: as §24, §25, §26, §27, §28, §29, §30, §31, §32, §33, §34, §35

E. coli empty = test system: E. coli empty
Protocol: (§1) In parallel, a control set was incubated without compounds for 50 min, followed by incubation with 75 μM meropenem trihydrate for 10 min. Cells were then pelleted, washed, resuspended in water, lysed, and clarified before LC-MS analysis.
(§2) 1.12 LC-MS accumulation assay
(§3) 1.12.1 Bacterial Strains and Growth Conditions:
(§4) Accumulation assay was performed two E. coli K-12 MG1655 strains transfected with pSU18 vector containing NDM-1 expression or an empty vector control. Cell growth was performed in Luria-Bertani (LB) broth (NaCl 10g/L, K2HPO4 6.3 g/L, KH2PO4 1.8 g/L, sodium citrate […]
(§5) 1.12.2 Preparation of Accumulation Assay Samples for LC-MS Analysis:
(§6) Assay was adapted from the work of Geddes et al. and Widya et al.9–11 E. coli MG1655 pSU18 NDM-1 and pSU18 Empty were grown from single colonies at 37 °C with aeration, while shaking at 180 rpm for 18 hours. The overnight suspensions were subcultured (1:100) in fresh LB and incubated to yield an OD600 of 0.55-0.60. The were harvested and pelleted at 3500 × g for 15 minutes at 4 °C. The pellets were washed with Meuller -Hinton II (MHII) broth and pelleted again under the same conditions. The pellets were resuspended in a n adjusted volume of fresh MHII to achieve an OD 600 ≈ 10.0. Shielded from ambient light, cells were incubated with 320 μM of metal complex for 1 hour while shaking at 180 rpm. Separately, another set of cells was incubated under identical conditions without any added metal complex. Cells […]
(§7) incubated with metal complex were maintained incubating under the same conditions for an additional 10 minutes, while the second set of cells was incubated with 75 μM of meropenem trihydrate for 10 minutes. After treatment, 10 μL of each cell suspension was taken and dilution 1:10 PBSA for OD600 viability analysis. A 150 μL aliquot of each cell suspension was layered onto 150 μL of cold silicone oil mixture (1:9, v/v AR20:High temperature silicone oil) and centrifuged at 3500 × g for 1 hour at 4 °C. The aqu eous and oil supernatant were carefully aspirated to isolate the cell pellets, which were resuspended in 50 μL of water and transferred to a fresh microplate. For lysis, a 1:1 (v/v) mixture of acetonitrile and methanol was added to each sample, and the sam ples were freeze thawed at -80 °C for approximately 18 hours.
(§8) Thawed samples were clarified by two rounds of centrifugation at 3500 × g for 1 hour at 4 °C, […]
(§9) External calibration curves were prepared by mixing compound at increasing concentration with extracted cell lysate (prepared in parallel to analyte containing samples) in concentrations […]
(§10) nM were also prepared to assess quantitative accuracy. Samples were submitted to LCMS analysis as biological triplicate using a single calibration curve. […]
(§11) was spiked into each calibration and analyte sampl e as an internal standard.

E. coli NDM-1 [5] = test system: E. coli NDM-1
Protocol: as §1, §2, §3, §4, §5, §6, §7, §8, §9, §10, §11

[6] = test system: seven mammalian cell lines; conditions: panel of seven mammalian cell lines including HepG2
NDM-1 [7] = target: T1, NDM-1; test: biochemical
Protocol: as §12, §13, §14, §15, §16, §17, §18, §19, §20, §21, §22, §23

NDM-1 [8] = target: T1, NDM-1; test: biochemical; conditions: recombinant NDM-1, nitrocefin
RAW264.7 = conditions: RAW
HDAC1 = HDAC1 (Homo sapiens, UniProt Q13547); test: HDAC1 deacetylation assay (H3K9Ac, mass spectrometry); conditions: 100 µM compound, 3 hours, 37°C
Protocol: 1.7.1 HDAC1 Assay conditions:
The results of the assay were analysed using HRMS.
HDAC1 was included (-HDAC1).

E. coli NDM-1 [9] = test system: E. coli NDM-1; remark: listed apart in the source
Protocol: based screening experiments were performed in biological triplicate, each replicate starting
from a new single colony inoculation. Statistical significance was determined using two-way
ANOVA followed by Sidak’s multiple comparison test, with a single pooled variance.
Concentration (MIC) assay
20% glycerol stocks of E. coli MG1655 pSU18 NDM-1 (E. coli NDM-1) and E. coli MG1655
pSU18 empty (E. coli empty) stored at -80 °C were used to streak nutrient agar plates. After
The MHBII culture growing both E. coli strains contained chloramphenicol
as an antibiotic resistance marker (2 µg/mL, equivalent to ¼ MICE. coli for chloramphenicol =
8 µg/mL). The resulting suspensions were each diluted 100 x (15 µL in 1.5 mL) in MHBII with
chloramphenicol (2 µg/mL), and the resultant suspensions were incubated to OD600 = 0.6-1.2
To generate the two-dimensional drug interaction matrix, four 96-well source plates were
prepared. In Source Plates A1-3, the three analytes were subjected to a two-fold serial dilution
across the rows (A to G), maintaining constant concentrations within each row and achieving
a vertical concentration gradient. In parallel, Source Plate B was prepared by diluting
meropenem in a two-fold series across the Columns (9 to 2), generating a horizontal
concentration gradient across the plate. Equal volumes (1 µL) from one of the source plates A
and source plate B were transferred into a 96-well assay plate to establish the checkerboard
layout with a 50X dilution into MHBII (50 μL total volume).
The prepared bacterial cells were diluted to OD600 = 0.01. Each prepared checkerboard plate
was then inoculated with 50 μL per well of bacterial culture in MHBII with ½ MIC of
chloramphenicol (100 μL total volume per well , final OD600 = 0.005). Control wells were
included to account for drug-free growth, sterility, and single-agent gradient exposures. Dark
For the light condition, the
OD600 was measured on a BMG Labtech CLARIOstar plate reader. The MIC is the first value
at which no growth is seen. All E. coli NDM-1 data were averaged from 3 biological replicates,

[10] = Chromatographic LogD measurement; conditions: reversed-phase HPLC, Eclipse Plus C18 column, pH 7.4
Protocol: ChromLogD measurements were adapted from a previously reported procedure.3 The reversed
phase HPLC measurements were measured using an Agilent 1100 Series, equipped with an
Eclipse Plus C18 column 4.6 x 50 mm, using a gradient of 50 mM ammonium acetate/CH3CN
0 – 100% over 10 min. The mobile phase was adjusted to pH = 7.4 using concentrated sodium
The retention times (log k’) of seven commercially available compounds which cover the log
D range from -0.02 to 3.18 (theophylline, 5-phenyl-1H-tetrazole, benzimidazole, colchicine,
acetophenone, indole, propiophenone, butyrophenone, and benzophenone) were calculated
using the below equation, where tR is the retention time of the compound and t0 is the column
dead time, measured by injecting uracil (0.853 min).
The average retention times (tR) of two consecutive injections of sample were used to calculate
the log k’ values, which were then used to create the standard curve (Figure S1).

[11] = organic photosensitizers; cited from earlier work
[12] = read-out: Change in melting temperature (ΔT) of NDM-1

T2 sequence (C7C422 29-270 limits assumed): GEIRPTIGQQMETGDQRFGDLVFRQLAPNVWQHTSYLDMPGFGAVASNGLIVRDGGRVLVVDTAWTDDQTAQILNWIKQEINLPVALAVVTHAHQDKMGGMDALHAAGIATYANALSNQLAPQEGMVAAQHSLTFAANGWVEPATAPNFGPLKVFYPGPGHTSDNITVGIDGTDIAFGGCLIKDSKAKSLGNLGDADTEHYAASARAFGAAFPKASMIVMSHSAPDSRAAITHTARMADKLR
T1 sequence (C7C422 31-270 limits assumed): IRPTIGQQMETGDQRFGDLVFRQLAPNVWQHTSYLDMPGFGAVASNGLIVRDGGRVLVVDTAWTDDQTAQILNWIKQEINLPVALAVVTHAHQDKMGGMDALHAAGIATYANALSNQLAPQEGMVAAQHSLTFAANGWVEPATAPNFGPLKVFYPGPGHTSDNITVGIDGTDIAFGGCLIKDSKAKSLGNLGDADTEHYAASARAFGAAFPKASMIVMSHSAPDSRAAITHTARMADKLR
HDAC1, sequence (Q13547 whole entry, species assumed): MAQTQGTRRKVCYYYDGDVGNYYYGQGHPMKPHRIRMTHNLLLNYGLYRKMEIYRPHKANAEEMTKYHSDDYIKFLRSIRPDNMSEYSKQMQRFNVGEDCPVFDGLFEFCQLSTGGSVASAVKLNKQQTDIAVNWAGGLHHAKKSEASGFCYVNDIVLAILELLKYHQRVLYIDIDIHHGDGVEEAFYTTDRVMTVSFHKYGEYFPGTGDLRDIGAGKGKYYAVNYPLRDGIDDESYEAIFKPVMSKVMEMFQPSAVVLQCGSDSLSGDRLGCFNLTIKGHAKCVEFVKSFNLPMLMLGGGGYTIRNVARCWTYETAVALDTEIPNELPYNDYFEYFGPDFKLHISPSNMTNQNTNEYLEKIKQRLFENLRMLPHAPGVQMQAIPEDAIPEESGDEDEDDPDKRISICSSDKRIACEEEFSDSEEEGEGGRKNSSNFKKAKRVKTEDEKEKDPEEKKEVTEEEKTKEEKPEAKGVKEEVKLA

Cl.Cl.Nc1cccc(-c2cc(C(=O)O)nc(C(=O)O)c2)c1 [N1, 4-(3-amino-phenyl) dipicolinic acid]
Fold improvement in NDM-1 inhibition, light vs dark (NDM-1 [1]): no enhancement of potency
LD50 (HEK293T; 24 h): > 50 µM
LD50 (HEK293T; 48 h): > 50 µM
Effect on melting temperature of NDM-1 (NDM-1 [2]): destabilize the protein in a dose-dependent manner
Fold improvement in potency, light vs dark (NDM-1 in E. coli NDM-1 [3]): no change in potency
IC50 (NDM-1 in E. coli NDM-1 [4]; IC50(dark), dark): 13.2 µM and 13 µM
IC50 (NDM-1 in E. coli NDM-1 [4]; IC50(light), light 450 nm, 60 J cm^-2): 11.1 µM
Accumulation (E. coli empty; 320 μM, 1 h): 609 nM/OD600
Accumulation (E. coli NDM-1 [5]; 320 μM, 1 h): 731 nM/OD600
Cytotoxicity (no cytotoxicity up to) [6]: > 50 µM
Kd (NDM-1 [7]): 35 µM
ΔTm at 4 µM (NDM-1 [7]; [12]): -0.6 °C
ΔTm at 16 µM (NDM-1 [7]; [12]): -3.4 °C
ΔTm at 63 µM (NDM-1 [7]; [12]): -8.8 °C
LD50 (HepG2; HepG2, 24 h): > 50 µM
LD50 (HepG2; HepG2, 48 h): > 50 µM
IC50 (NDM-1 [8]; IC50(dark), dark): 3.2 ± 0.08 µM
IC50 (NDM-1 [8]; IC50(light), light 450 nm, 20 J cm^-2): 3.1 µM
LD50 (RAW264.7; 24 h): > 50 µM
LD50 (RAW264.7; 48 h): > 50 µM
Inhibition of HDAC1 (HDAC1): do not inhibit
LD50 (hTERT RPE-1; RPE1, 24 h): > 50 µM
LD50 (hTERT RPE-1; RPE1, 48 h): > 50 µM
LD50 (HaCaT; 24 h): > 50 µM
LD50 (HaCaT; 48 h): > 50 µM
LD50 (HeLa; 24 h): > 50 µM
LD50 (HeLa; 48 h): > 50 µM
LD50 (HCT116; HCT116, 24 h): > 50 µM
LD50 (HCT116; HCT116, 48 h): > 50 µM
Fold change in Meropenem MIC (E. coli NDM-1 [9]; compound 5 μM, dark): 0 fold
Fold change in Meropenem MIC (E. coli NDM-1 [9]; compound 5 μM, light 450 nm, 60 J cm^-2): 0.66 fold
Fold change in Meropenem MIC (E. coli NDM-1 [9]; compound 10 μM, dark): 0 fold
Fold change in Meropenem MIC (E. coli NDM-1 [9]; compound 10 μM, light 450 nm, 60 J cm^-2): 0.66 fold
Fold change in Meropenem MIC (E. coli NDM-1 [9]; compound 20 μM, dark): 0 fold
Fold change in Meropenem MIC (E. coli NDM-1 [9]; compound 20 μM, light 450 nm, 60 J cm^-2): 1.3 fold
Fold change in Meropenem MIC (E. coli NDM-1 [9]; compound 40 μM, dark): 0.66 fold
Fold change in Meropenem MIC (E. coli NDM-1 [9]; compound 40 μM, light 450 nm, 60 J cm^-2): 2.0 fold
Fold change in Meropenem MIC (E. coli NDM-1 [9]; compound 80 μM, dark): 2.6 fold
Fold change in Meropenem MIC (E. coli NDM-1 [9]; compound 80 μM, light 450 nm, 60 J cm^-2): 6.6 fold
Fold change in Meropenem MIC (E. coli NDM-1 [9]; compound 160 μM, dark): 35 fold
Fold change in Meropenem MIC (E. coli NDM-1 [9]; compound 160 μM, light 450 nm, 60 J cm^-2): 43 fold
chromatographic logD [10]: -1.32

porfimer sodium
Excited state lifetime [11]: 14 ns

C[C@@H](O)[C@H]1C(=O)N2C(C(=O)O)=C(S[C@@H]3CN[C@H](C(=O)N(C)C)C3)[C@H](C)[C@H]12 [Meropenem, meropenem]
Accumulation (E. coli empty; 75 μM, 10 min): 150 nM/OD600
Accumulation (E. coli empty; 75 μM, 10 min, listed as meropenem trihydrate): 0 nM/OD600
Accumulation (E. coli NDM-1 [5]; 75 μM, 10 min): not detectable

— PMC12703741, “Light-Activated Metal-Dependent Protein Degradation: A Heterobifunctional Ruthenium(II) Photosensitizer Targeting New Delhi Metallo-β-lactamase 1” (Journal of the American Chemical Society, 2025)
